Measured values: paper PMC11011685, “4-(Azolyl)-Benzamidines as a Novel Chemotype for ASIC1a Inhibitors” (International Journal of Molecular Sciences, 2024)

What was measured:
Type in all cases: cell-based
human ASIC1a (hASIC1a) [1] = target: T1, human ASIC1a (hASIC1a) (Homo sapiens, UniProt P78348); experiment: whole-cell patch clamp, residual current I/Io at […] (recovery […]); conditions: 100 µM
T1 construct: gene ASIC1; native hASIC1a endogenously expressed in HEK 293 cells
T1 sequence (P78348 1-528): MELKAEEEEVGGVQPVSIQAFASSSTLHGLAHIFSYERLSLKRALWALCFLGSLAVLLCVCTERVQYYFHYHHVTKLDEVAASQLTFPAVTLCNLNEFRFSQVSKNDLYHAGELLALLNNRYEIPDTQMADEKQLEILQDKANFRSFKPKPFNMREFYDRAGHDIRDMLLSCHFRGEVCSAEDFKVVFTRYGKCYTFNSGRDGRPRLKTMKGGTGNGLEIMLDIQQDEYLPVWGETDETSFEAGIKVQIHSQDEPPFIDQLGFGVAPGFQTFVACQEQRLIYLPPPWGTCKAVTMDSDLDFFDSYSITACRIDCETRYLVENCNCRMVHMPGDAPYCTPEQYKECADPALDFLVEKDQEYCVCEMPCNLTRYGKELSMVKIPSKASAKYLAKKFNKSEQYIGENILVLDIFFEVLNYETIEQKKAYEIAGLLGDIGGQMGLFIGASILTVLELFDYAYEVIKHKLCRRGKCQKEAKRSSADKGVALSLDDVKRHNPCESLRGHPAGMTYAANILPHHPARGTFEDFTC

human ASIC1a (hASIC1a) [2] = target: T1, human ASIC1a (hASIC1a); experiment: whole-cell patch clamp, residual current I/Io at […] (weak); conditions: 100 µM
human ASIC1a (hASIC1a) [3] = target: T1, human ASIC1a (hASIC1a); experiment: whole-cell patch clamp, residual current I/Io at […]; conditions: 100 µM
human ASIC1a (hASIC1a) [4] = target: T1, human ASIC1a (hASIC1a); experiment: whole-cell patch clamp, pH […] to […] evoked current, dose-response

## EN300-256317
Human ASIC1a (hASIC1a) [1]
  I/Io (Mean ± SD), %: 7 ± 2 % I/Io at 100 µM

## EN300-256318
Human ASIC1a (hASIC1a) [2]
  I/Io (Mean ± SD), %: 76 ± 7 % I/Io at 100 µM

## EN300-257412
Human ASIC1a (hASIC1a) [3]
  I/Io (Mean ± SD), %: 37 ± 8 % I/Io at 100 µM

## EN300-257539
Human ASIC1a (hASIC1a) [4]
  IC50: 3.5 ± 0.5 µM

## EN300-262584
Human ASIC1a (hASIC1a) [3]
  I/Io (Mean ± SD), %: 19 ± 8 % I/Io at 100 µM

## EN300-264105
Human ASIC1a (hASIC1a) [4]
  IC50: 6 ± 0.6 µM

## EN300-268551
Human ASIC1a (hASIC1a) [4]
  IC50: 25 ± 2 µM

## EN300-2324118
Human ASIC1a (hASIC1a) [2]
  I/Io (Mean ± SD), %: 65 ± 3 % I/Io at 100 µM
